Reference: ChEMBL document CHEMBL1133933, “Imidazolopyrazinones as potential antioxidants” (Bioorg Med Chem Lett, 2001)

Assays:
[1] = Krel expressed as Ki with respect to Ktrolox
[2] = Reaction rate constant of the compound

| SMILES | Krel [1] | reaction rate constant [2] [M⁻¹ s⁻¹] |
| --- | --- | --- |
| Cl.Oc1c(Cc2ccccc2)nc2cnccn12 | 1.6 | 28000 |
| Cc1nc2cnccn2c1O.Cl | 3.5 | 60000 |
| Oc1ccc(Cc2nc3c(Cc4ccccc4)nc(-c4ccc(O)cc4)cn3c2O)cc1 [COELENTERAZINE] | 7.1 | 120000 |
| Cc1c(C)c2c(c(C)c1O)CCC(C)(C(=O)O)O2 (stereo unspecified) [TROLOX] | 1 | 17000 |
| COc1ccc(-c2cn3c(O)c(Cc4ccc(O)cc4)nc3c(Cc3ccccc3)n2)cc1 | 5.6 | 96000 |
| Cl.Oc1c(Cc2ccccc2)nc2cnc(-c3ccccc3)cn12 | 3.8 | 65000 |
| Cl.Oc1c(-c2ccccc2)nc2cnccn12 | 4.9 | 84000 |

Other lines, results leading:

| Krel [1] | reaction rate constant [2] [M⁻¹ s⁻¹] | SMILES |
| --- | --- | --- |
| 9.4 | 160000 | COc1ccc(-c2cn3c(O)c(Cc4ccccc4)nc3cn2)cc1.Cl |
| 12.3 | 210000 | Cc1nc2cnc(-c3ccc(O)cc3)cn2c1O.Cl |
| 1.9 | 33000 | Cl.Oc1ccc(-c2cn3c(O)c(Cc4ccccc4)nc3cn2)cc1 |
| 10 | 170000 | Cc1nc2cnc(-c3ccccc3)cn2c1O.Cl |
| 6.2 | 105000 | Cl.Oc1ccc(-c2cn3c(O)c(-c4ccccc4)nc3cn2)cc1 |
| 16.5 | 280000 | COc1ccc(-c2cn3c(O)c(C)nc3cn2)cc1.Cl |
